ChEMBL document CHEMBL4038279, “Design and characterization of opioid ligands based on cycle-in-macrocycle scaffold” (Bioorg Med Chem, 2017)
Where a SMILES comes first, the peptide text is derived from it. Bridges are numbered along the chain shown (N, C = ends). [ ]: non-standard residue; d: D form.

Experiments:
Mu-type opioid receptor = Mu-type opioid receptor (Homo sapiens, UniProt P35372); test: Displacement of [3H]DAMGO from recombinant human mu opioid receptor expressed in CHO cell membranes after 120 mins by liquid scintillation counter analysis
[1] = molecular target: Delta-type opioid receptor (Homo sapiens, UniProt P41143); test: Displacement of [3H]deltorphin-2 from recombinant human delta opioid receptor expressed in CHO cell membranes after 120 mins by liquid scintillation counter analysis
[2] = molecular target: Kappa-type opioid receptor (Homo sapiens, UniProt P41145); test: Displacement of [3H]U-69593 from recombinant human kappa opioid receptor expressed in CHO cell membranes after 120 mins by liquid scintillation counter analysis
Kappa-type opioid receptor, sequence (P41145 whole entry): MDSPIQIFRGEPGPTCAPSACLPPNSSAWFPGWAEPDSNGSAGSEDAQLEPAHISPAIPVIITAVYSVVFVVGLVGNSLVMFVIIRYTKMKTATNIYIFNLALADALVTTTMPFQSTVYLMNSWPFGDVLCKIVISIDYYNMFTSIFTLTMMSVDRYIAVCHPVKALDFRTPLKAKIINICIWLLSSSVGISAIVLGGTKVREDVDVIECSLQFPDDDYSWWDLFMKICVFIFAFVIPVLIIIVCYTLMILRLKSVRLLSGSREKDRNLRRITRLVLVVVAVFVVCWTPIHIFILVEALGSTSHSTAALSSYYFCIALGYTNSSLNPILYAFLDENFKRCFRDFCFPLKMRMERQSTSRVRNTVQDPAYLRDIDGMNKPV

Delta-type opioid receptor, sequence (P41143 whole entry): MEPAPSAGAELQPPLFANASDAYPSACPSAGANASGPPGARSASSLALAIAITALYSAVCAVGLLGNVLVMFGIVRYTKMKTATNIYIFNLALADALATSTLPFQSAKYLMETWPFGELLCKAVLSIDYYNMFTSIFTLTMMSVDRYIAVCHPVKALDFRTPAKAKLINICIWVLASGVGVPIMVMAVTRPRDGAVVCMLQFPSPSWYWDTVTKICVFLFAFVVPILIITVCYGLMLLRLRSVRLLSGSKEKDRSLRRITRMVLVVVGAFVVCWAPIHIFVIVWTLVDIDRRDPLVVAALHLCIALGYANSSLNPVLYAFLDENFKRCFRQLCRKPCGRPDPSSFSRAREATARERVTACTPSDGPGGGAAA
Mu-type opioid receptor, sequence (P35372 whole entry): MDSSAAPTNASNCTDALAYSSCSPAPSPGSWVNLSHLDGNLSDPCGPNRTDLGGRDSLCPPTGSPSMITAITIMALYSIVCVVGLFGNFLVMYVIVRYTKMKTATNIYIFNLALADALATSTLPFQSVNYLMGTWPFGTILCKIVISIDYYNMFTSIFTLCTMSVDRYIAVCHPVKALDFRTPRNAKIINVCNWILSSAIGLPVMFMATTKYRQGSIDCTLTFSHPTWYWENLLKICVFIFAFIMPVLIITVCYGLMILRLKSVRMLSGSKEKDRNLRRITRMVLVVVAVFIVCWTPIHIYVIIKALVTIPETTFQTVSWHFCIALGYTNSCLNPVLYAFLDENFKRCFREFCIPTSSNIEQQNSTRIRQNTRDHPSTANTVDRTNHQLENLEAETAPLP

Compound	Ki (Mu-type opioid receptor) [nM]	Ki [1] [nM]	Ki [2] [nM]
NC(=O)[C@@H]1CC(=O)NCCCC[C@@H](NC(=O)[C@@H](N)Cc2ccc(O)cc2)C(=O)N[C@@H](Cc2ccccc2)C(=O)N2CCCC[C@H]2C(=O)N1	3.16	49.6	6720
NC(=O)[C@@H]1CC(=O)NCCCC[C@@H](NC(=O)[C@@H](N)Cc2ccc(O)cc2)C(=O)N[C@@H](Cc2ccccc2)C(=O)N2CCC[C@H]2C(=O)N1	0.46	85.5	884
NC(=O)[C@@H]1CC(=O)NCCCC[C@@H](NC(=O)[C@@H](N)Cc2ccc(O)cc2)C(=O)N[C@@H](Cc2ccccc2)C(=O)N2CCC(CC2)C(=O)N1	1.15	76.7	5460
NC(=O)[C@@H]1CC(=O)NCCCC[C@@H](NC(=O)[C@@H](N)Cc2ccc(O)cc2)C(=O)N[C@@H](Cc2ccccc2)C(=O)N2CCC[C@H](C2)C(=O)N1	0.9	67	4620
NC(=O)[C@@H]1CC(=O)NCCCC[C@@H](NC(=O)[C@@H](N)Cc2ccc(O)cc2)C(=O)N[C@@H](Cc2ccccc2)C(=O)N[C@@H](Cc2ccccc2)C(=O)N1 (H-Y[dK]FFD-NH2; lactam 2-5)	0.56	279	2.36
